# From PubChem BioAssay AID652053 (Broad Institute, 2013)
# Tested on: Huh7 psiCHECK-miR122 Renilla luciferase reporter, 48 h
# Assay: miR-122 inhibitors in Huh7 reporter cells, dose response, cell-based, Huh7 psiCHECK-miR122, Renilla luciferase, cherry-pick (AID 652053)
row,SMILES,AC40 [µM]
1,C[C@H](CO)N1C[C@H](C)[C@@H](CN(C)Cc2ccc(C(F)(F)F)cc2)Oc2c(NC(=O)C3CCCCC3)cccc2C1=O,0.596
2,Cc1cc(C)c(S(=O)(=O)NC(C)C)c(C)c1-n1cnnn1,1.3
3,O=C(c1ccc(F)cc1)N1C[C@@H]2[C@H](c3ccccc31)[C@H](CO)N2C(=O)c1ccc(F)cc1,2.35
4,O=C(NCc1cccc(Cl)c1)c1ccc(S(=O)(=O)Nc2cccc(C(F)(F)F)c2)cc1,22.5
5,CC(=O)N1CCc2cc(Br)cc(S(=O)(=O)NCc3ccc(Cl)cc3)c21,4.29
6,O=S(=O)(NC1CCCCC1)c1ccc(-c2csnn2)s1,3.8
7,C[C@@H]1CN([C@H](C)CO)C(=O)c2cccc(NC(=O)Nc3ccccc3)c2O[C@H]1CN(C)Cc1ccc(C(F)(F)F)cc1,3.22
8,O=S(=O)(Nc1ccc2ccccc2c1)c1ccccc1,12.5
9,COc1ccc(OC)c(S(=O)(=O)Nc2ccccc2C(F)(F)F)c1,9.97
10,Cc1csc2c(=O)sc(NC(=O)c3ccco3)nc12,14.5
11,O=C(c1cn(Cc2ccccc2)nc1-c1ccc(Cl)cc1)N1CCN(c2ccccn2)CC1,3.28
12,S=C(Nc1ccc(Cl)cc1Cl)NC1CCCCC1,3.4
13,COc1cc(C(CCN2CCOCC2)c2c(OC)cc(OC)c3c(-c4ccccc4)cc(=O)oc23)cc(OC)c1OC (centres undefined),1.2
14,CCOC(=O)c1c(S(=O)(=O)Nc2cccc(Cl)c2)c(C)n(C)c1C,1.08
15,CSc1ccc(S(=O)(=O)Nc2ccc(F)cc2)cc1,5.15
16,Cc1sc(NC(=O)c2ccccc2)c(C(c2ccc(Cl)cc2)N2CCN(CCO)CC2)c1C (centres undefined),22.3
17,Cc1cccc(C(=O)Nc2cccc(S(=O)(=O)NCc3ccco3)c2)c1,3.29
18,CC(C)(C)NS(=O)(=O)c1ccc2[nH]c3c(c2c1)CCCCC3,5.04
19,CC(C)C(=O)Nc1ccc2c(c1)C(=O)N(C)[C@H]1CC[C@H](CC(=O)NCc3cccc(F)c3)O[C@H]1CO2,17.7
20,Cc1cccc(NS(=O)(=O)c2ccc(-c3cnc(C4CC4)o3)cc2)c1,2.13
21,C[C@@H]1CN([C@H](C)CO)C(=O)Cc2cc(N(C)C)ccc2O[C@H]1CN(C)Cc1ccc(C(=O)Nc2ccccc2N)cc1,10.3
22,O=S(=O)(NCc1cccs1)c1cccc(S(=O)(=O)N2CCCCC2)c1,6.72
23,CC(C)CCC(CC(C)O)C(=O)NNC(=S)Nc1ccccc1 (centres undefined),9.74

row,SMILES,AC40 [µM]
1,Cc1ccc(S(=O)(=O)Nc2ccc3ccccc3c2)cc1,7.08
2,Cc1ccc(C(=O)NCCSC2CCCCC2)cc1S(=O)(=O)Nc1ccccc1,6.44
3,COc1ccc(NC(=O)Nc2cccc3c2O[C@H](CN(C)Cc2ccc4c(c2)OCO4)[C@@H](C)CN([C@H](C)CO)C3=O)cc1,22.8
4,C/C(=N\NC(=O)c1ccccc1O)C1C(=O)c2ccccc2C1=O,18.1
5,COc1ccc(NC(=O)Cc2cccc(F)c2)cc1S(=O)(=O)Nc1ccccc1Cl,4.83
6,C[C@H](CO)N1C[C@H](C)[C@@H](CN(C)Cc2ccc(C(F)(F)F)cc2)Oc2c(cccc2N(C)C)C1=O,2.48
7,Cc1ccc(S(=O)(=O)n2nc(C)c(Br)c2C)c(C)c1C,12
8,O=S(=O)(Nc1ccc(S(=O)(=O)N2CCCC2)cc1)c1ccccc1Br,4.34
9,C[C@@H]1CN([C@H](C)CO)C(=O)c2cccc(NC(=O)c3ccc(-c4nccs4)cc3)c2O[C@@H]1CN(C)Cc1ccc(C(=O)Nc2ccccc2N)cc1,6.24
10,CCC(=O)NC(=S)Nc1ccc(S(=O)(=O)NC2CCCCC2)cc1,1.1
11,Cc1ccc(CN2CCSc3ccc(C(=O)NCc4ccco4)cc32)cc1,11.3
12,Cc1cc(C(O)c2ncc(-c3ccccc3F)[nH]2)ccc1F (centres undefined),3.57
13,COc1ccc(S(=O)(=O)N(C)C[C@H]2Oc3ccc(NC(=O)Nc4ccc(F)cc4)cc3C(=O)N([C@H](C)CO)C[C@H]2C)cc1,0.631
14,Cc1ccc(S(=O)(=O)Nc2ccc3c(c2)CC(=O)N([C@H](C)CO)C[C@H](C)[C@H](CN(C)Cc2ccc(C(=O)Nc4ccccc4N)cc2)O3)cc1,6.79
15,COc1ccc(C2C(Oc3ccccc3)C(=O)N2c2cc(C)ccc2C)cc1OC (centres undefined),23.1
16,COc1ccc(NS(=O)(=O)c2cc(NC(=O)c3ccc(Cl)cc3)ccc2N2CCOCC2)cc1,< 0.26
17,COc1ccc(C2=Nn3c(nnc3-c3ccccc3OC)SC2)cc1OC1CCOC1 (centres undefined),8.29
18,CN(c1cccc(NC(=O)c2ccc(Cl)c(S(=O)(=O)Nc3ccccc3)c2)c1)S(C)(=O)=O,2.18
19,C[C@H](CO)N1C[C@H](C)[C@@H](CN(C)Cc2ccc(Oc3ccccc3)cc2)Oc2c(NC(=O)C3CCOCC3)cccc2C1=O,1.31
20,N#Cc1ccc(NC(=S)N2CCC3CC2c2cc(-c4ccc5c(c4)OCO5)ccc23)cc1 (centres undefined),0.31
21,O=S(=O)(NCCc1ccccc1)c1cccc(S(=O)(=O)N2CCOCC2)c1,6
22,Cc1ccc(C)c(S(=O)(=O)Nc2ccc3cn[nH]c3c2)c1,3.58
23,CC(C)CC#Cc1ccc2c(c1)O[C@H](CN(C)C(=O)Nc1ccccc1F)[C@@H](C)CN([C@@H](C)CO)S2(=O)=O,2.15

row,SMILES,AC40 [µM]
1,C[C@H](CO)N1C[C@H](C)[C@@H](CN(C)Cc2ccccc2)Oc2c(NC(=O)C3CC3)cccc2C1=O,6.79
2,O=C(Nc1cc(S(=O)(=O)Nc2ccccc2F)ccc1Cl)c1ccc(F)cc1F,7.6
3,COc1ccc(S(=O)(=O)Nc2cccc3c2O[C@H](CN(C)Cc2ccc(Cl)c(Cl)c2)[C@@H](C)CN([C@H](C)CO)C3=O)cc1,4.25
4,CCc1ccc(-c2cc(C)no2)cc1S(=O)(=O)Nc1ccc(C)cn1,2.33
5,Cc1ccc(S(=O)(=O)N(C)C[C@H]2Oc3ccc(NC(=O)Nc4ccc(C(F)(F)F)cc4)cc3C(=O)N([C@H](C)CO)C[C@H]2C)cc1,5.41
6,CCOc1ccc(Br)cc1S(=O)(=O)Nc1cccc(S(=O)(=O)N(CC)CC)c1,7.75
7,O=C(CN1c2ccccc2Sc2ccccc21)NNC(=O)Nc1cccc(Cl)c1,17.1
8,Cc1cccc(NS(=O)(=O)c2csc(C(N)=O)c2)c1,3.34
9,Cc1noc(C)c1NC(=O)Nc1cccc2c1O[C@H](CN(C)Cc1ccccc1)[C@@H](C)CN([C@H](C)CO)C2=O,7.74
10,Cc1cc(C(C)(C)C)cc(S(=O)(=O)Nc2ccc(C(=O)O)cc2)c1C,9.72
11,COc1ccc(S(=O)(=O)Nc2cc(Cl)ccc2OC)cc1,2.68
12,CCNc1ccc(S(=O)(=O)N(C)C)cc1NCC(=O)Nc1ccc(F)c(Cl)c1,1.45
13,Cc1ccc(C(C)(C)C)cc1S(=O)(=O)Nc1cccc(S(=O)(=O)NC2=NCCC2)c1,5.86
14,COCC#Cc1ccc2c(c1)O[C@H](CN(C)S(=O)(=O)c1ccc(OC)cc1)[C@H](C)CN([C@H](C)CO)S2(=O)=O,5.8
15,Clc1cccc(Cl)c1CSc1nnc(CN2CCOCC2)n1-c1ccccc1,10.4
16,CC(=O)N1CCc2cc(S(=O)(=O)Nc3cccc(C(F)(F)F)c3)ccc21,2.92
17,CCN(CC)S(=O)(=O)c1cc(NS(=O)(=O)c2cccc(Cl)c2)ccc1C,8.63
18,CC(=O)N1CC(C)Sc2ccc(S(=O)(=O)NCc3ccc(F)cc3)cc21 (centres undefined),4.49
19,Cc1ccc(NS(=O)(=O)c2cc(C(=O)NCCSC3CCCCC3)ccc2C)cc1,4.68
20,CC(C)c1ccc(NC(=S)NCc2cccs2)cc1,2.8
21,Cc1cc(-c2ccc(C(C)C)c(S(=O)(=O)NCc3ccco3)c2)on1,1.22
22,C[C@@H]1CN([C@@H](C)CO)C(=O)c2cccc(NC(=O)c3cnccn3)c2O[C@H]1CN(C)Cc1ccc(C(F)(F)F)cc1,19.2
23,CC(=O)N1CCOc2ccc(S(=O)(=O)NCCc3cccc(C)c3)cc21,4.01
